Values quoted from earlier work as cited in patent US10993890B2, “Antifungal solution and foot wipe” (PELLI SKIN CO., LLC, priority 2018, dated 2021).

Columns and labels:
[1] = octanol/water partition coefficient of the solvent
skin cells = conditions: 3% ethanol applied to skin cells over the course of two days

Compound	LogKow [1]	increase of cell death (skin cells)
1,3-dioxolan	−0.37	–
C1CCOCOC1 [1,3-Dioxepane]	0.7709	–
CC1COCO1 (centres unmarked) [4-Methyl-1,3-dioxolane]	0.3792	–
OC1COCOC1 [5-Hydroxy-1,3-dioxane]	−1.082	–
CCO [ethanol]	–	26%
